Source: US20160368919A1, “NOVEL PYRIDINE PYRAZINONES AS BET-FAMILY BROMODOMAIN INHIBITORS” (Pfizer Inc., priority 2015, published 2016)
pIC50: −log10 of the molar value.

Assays:
BRD4 BD1 = target: T1, BRD4 BD1 (Homo sapiens, UniProt O60885); experiment: BRD4 BD1 Fluorescence Polarization (FP) competition binding assay; settings: BRD4 BD1 40 nM, probe PFI-411FP 2 nM
T1 construct: His-tagged BRD4 BD1 (44-160); made in house
Protocol: Compound binding to BRD4 BD1 was assessed with a FP competition binding assay. […] All assay components were diluted in 50 mM HEPES pH 7.4 containing 0.08% bovine serum albumin (assay buffer). To start the assay, 8 μL of BRD4 BD1 was added to each well of a low volume 384-well black flat bottom microtiter plate (Corning 3820) containing 4 μl of various concentrations of test compound (each plate also contained positive and negative control wells to define the upper and lower limits of the assay signal). After addition of BRD4 BD1, the assay plate was incubated at room temperature (RT, 20° C.). After 15 minutes, 4 μL of PFI-411FP was added to each well and the assay plate was placed in the dark at RT. The final assay concentration (FAC) of PFI-411FP was 2 nM, the FAC of BRD4 BD1 was 40 nM, the FAC of test compound ranged from 120 to 0.0012 μM and the FAC of DMSO was 0.4%. After 60 min, polarization values were measured with an Envision 2103 multilabel reader (Perkin Elmer) using a Cy5 dual enhanced mirror and excitation at 620 nm and emission at 688 nm. The percent (%) effect was calculated for each concentration of test compound and was relative to the amount of polarization signal produced by the positive and negative control wells contained within each assay plate. The concentrations and % effect values for test compounds were plotted versus each other with a proprietary curve fitting program using a four-parameter logistic dose response equation and the concentration of compound required for 50% effect (IC50) was determined. The Ki values of competitive inhibitors were calculated using the equation described by Nikolovska-Coleska et al. (Development and optimization of a binding assay for the XIAP BIR3 domain using fluorescence polarization. Analytical Biochemistry (2004) 332: 261-273).

[1] = test system: LPS-induced IL-6 production in human whole blood; experiment: IL-6 human whole blood (HWB) assay, LPS-stimulated, HTRF detection; format: cell-based; settings: 1 ng/ml LPS, 4 hours
Protocol: Compound effect on IL-6 production was determined using lipopolysaccharide (LPS)-stimulated human whole blood and an HTRF (Homogeneous Time-Resolved Fluorescence) IL-6 detection kit (Human IL6 HTRF Assay CisBio 62IL6PEC). HWB was collected by venous puncture from healthy donors, transferred to a 50 ml polypropylene tube containing sodium heparin (14.3 units per mL of HWB) and then placed in a 37° C. water bath until use. To start the assay, 80 μL of heparin-treated HWB containing 1 ng/ml of LPS (equivalent to LPS ˜EC80 with regard to stimulation of IL-6 production in HWB under these assay conditions) was added to each well of a 384-well, sterile, endotoxin-free, polypropylene plate (Greiner 781281) containing 160 nL of various concentrations of test compound (each plate also contained positive and negative control wells to define the upper and lower limits of the assay signal). The plate was then placed in a thermoshaker incubator set to 370C (Boekel 270440). The final assay concentration (FAC) of test compound ranged from 60 to 0.0006 μM and the FAC of DMSO was 0.2%. After 4 hours, the assay plate was removed from the incubator and centrifuged at 700×g for 10 minutes. 5 μL of the resulting upper plasma layer was removed from each well and diluted 1:2 with 1×Dulbecco's phosphate buffered saline (DPBS). 5 μL of this diluted plasma was then transferred to a white 384-well low volume assay plate (Greiner 784080) containing 5 μL of combined anti-IL-6-Cryptate and anti-IL-6-XL665 detection antibodies (per manufacturer's protocol). The plate was then sealed with a Top Seal (Perkin Elmer 6005185) and incubated at room temperature (RT, 20° C.). After 16-18 hrs (overnight), the HTRF assay signal was read on an Envision 2103 plate reader using a Lance Delfia Dual/Bias mirror TRF laser excitation and emission was measured at 665 nm and 615 nm respectively. The percent (%) effect was calculated for each concentration of test compound and was relative to the amount of HTRF signal produced by the positive and negative control wells contained within each assay plate. The concentrations and % effect values for test compounds were plotted versus each other with a proprietary curve fitting program using a four-parameter logistic dose response equation and the concentration of compound required for 50% effect (IC50) was determined.

MM1.S cells = experiment: MM1.S cell proliferation assay (CellTiter-Glo); format: cell-based; settings: for pIC50: MM1.S, CTG at 96h; for inhibition of proliferation of MM1.S cells: dose dependent manner, FIG. 1.A
Protocol: (§1) MM1.S (dexamethasone sensitive) and OPM-2 cells were purchased from ATCC and maintained in RPMI-1640 medium with 10% fetal bovine serum at 37 degrees, 5% CO2. Cells were seeded at 10,000 cells/well in 100 uL medium. The following day compounds or control vehicle (DMSO) were added at indicated concentrations in 10 ul volume. Compound treated OPM-2 cells and MM1.S cell were analyzed for cell density at 72h and 96h, respectively, using CellTiter-Glo® (CTG) reagent (Promega). The CTG assay measures the amount of ATP present, which indicates the number of viable cells in culture.

OPM-2 cells = experiment: OPM-2 cell proliferation assay (CellTiter-Glo); format: cell-based; settings: for pIC50: OPM-2, CTG at 72h; for inhibition of proliferation of OPM-2 cells: dose dependent manner, FIG. 1.B
Protocol: as §1

LnCaP cells, AR(+) = experiment: CRPC cell proliferation assay (CellTiter-Glo), LnCaP; format: cell-based; settings: CTG at 96h
Protocol: (§2) Castrate-Resistant Prostate Cancer (CRPC) Cell Proliferation Assay • Cells were seeded into 96-well plates at 2,000-10,000 cells/well in 100 uL medium. Four AR(+) cell lines (LnCaP, C4-2 (parental), C4-2AR-WT and C4-2AR—F876L) and one AR(−) cell line (DU-145) were studied. Compound treated cells were analyzed for cell density at 96h, using CellTiter-Glo® (CTG) reagent (Promega).

[2] = test system: C4-2 (parental) cells, AR(+); experiment: CRPC cell proliferation assay (CellTiter-Glo), C4-2; format: cell-based; settings: CTG at 96h
Protocol: as §2

C4-2AR-WT cells, AR(+) = experiment: CRPC cell proliferation assay (CellTiter-Glo), C4-2AR-WT; format: cell-based; settings: CTG at 96h
Protocol: as §2

[3] = test system: C4-2AR-F876L cells, AR(+); experiment: CRPC cell proliferation assay (CellTiter-Glo), C4-2AR-F876L; format: cell-based; settings: CTG at 96h
Protocol: as §2

DU-145 cells, AR(−) = experiment: CRPC cell proliferation assay (CellTiter-Glo), DU-145; format: cell-based; settings: CTG at 96h
Protocol: as §2

HCC2429 cells = experiment: NMC HCC2429 cell proliferation assay (CellTiter-Glo); format: cell-based; settings: Homo sapiens; HCC2429, CTG at 96h
Protocol: NMC HCC2429 Cell Proliferation Assay • HCC2429 cells were plated into a 96-well plate (10,000 cells/well). Compounds or control vehicle (DMSO) were added at indicated concentrations. Compound-treated HCC2429 cells were analyzed for cell density at 96h using CellTiter-Glo® (CTG) reagent (Promega).

[4] = test system: MYC, SOX2, involucrin and Keratin 14 expression in HCC2429 cells; experiment: Biomarker analysis in HCC2429 cells (RT-PCR, Western blot); format: cell-based
Protocol: HCC2429 cells were plated into a 6-well plate (250,000 cells/well). Cells were treated with compounds or control vehicle (DMSO) at the indicated concentrations for 72 hrs. Cells were collected, washed in PBS, and split for western blot and RNA analysis.

[5] = HCC2429, Western blot, 72 hrs, concentration-dependent

SMILES | pIC50 (BRD4 BD1) | pIC50 [1] | other results
CC[C@@H](c1ncccn1)n1c(=O)c(NCCC(=O)O)nc2ccc(-c3c(C)noc3C)nc21 [Example 45, N-{6-(3,5-dimethyl-1,2-oxazol-4-yl)-3-oxo-4-[(1S)-1-(pyrimidin-2-yl)propyl]-3,4-dihydropyrido[2,3-b]pyrazin-2-yl}-beta-alanine] | 6.49 | 5.07 | 
CC[C@@H](COC)n1c(=O)c(NCCC(=O)O)nc2ccc(-c3c(C)noc3C)nc21 [Example 46, N-{6-(3,5-dimethyl-1,2-oxazol-4-yl)-4-[(2S)-1-methoxybutan-2-yl]-3-oxo-3,4-dihydropyrido[2,3-b]pyrazin-2-yl}-beta-alanine] | 6.45 | 5.21 | 
COCC(COC)n1c(=O)c(NCCC(=O)O)nc2ccc(-c3c(C)noc3C)nc21 [Example 48, N-[4-(1,3-dimethoxypropan-2-yl)-6-(3,5-dimethyl-1,2-oxazol-4-yl)-3-oxo-3,4-dihydropyrido[2,3-b]pyrazin-2-yl]-beta-alanine] | 6.33 | 4.82 | 
Cc1noc(C)c1-c1ccc2nc(NCCC(=O)NS(C)(=O)=O)c(=O)n([C@@H](C)c3ccccc3)c2n1 [Example 50, N^3-{6-(3,5-dimethyl-1,2-oxazol-4-yl)-3-oxo-4-[(1S)-1-phenylethyl]-3,4-dihydropyrido[2,3-b]pyrazin-2-yl}-N-(methylsulfonyl)-beta-alaninamide] | 6.63 | 4.49 | 
Cc1noc(C)c1-c1ccc2nc(NCCc3nnn[nH]3)c(=O)n([C@@H](C)c3ccccc3)c2n1 [Example 51, 6-(3,5-dimethyl-1,2-oxazol-4-yl)-4-[(1S)-1-phenylethyl]-2-{[2-(1H-tetrazol-5-yl)ethyl]amino}pyrido[2,3-b]pyrazin-3(4H)-one] | 6.53 | 4.20 | 
CCC(CC)n1c(=O)c(NCCC(=O)O)nc2ccc(-c3c(C)noc3C)nc21 [Example 56, N-[6-(3,5-dimethyl-1,2-oxazol-4-yl)-3-oxo-4-(pentan-3-yl)-3,4-dihydropyrido[2,3-b]pyrazin-2-yl]-beta-alanine] | 6.46 | 4.92 | 
CCNC(=O)C[C@@H]1N=C(c2ccc(Cl)cc2)c2cc(OC)ccc2-n2c(C)nnc21 [IBET-762] |  |  | pIC50 (MM1.S cells; Homo sapiens): 7.92; inhibition of proliferation of MM1.S cells (MM1.S cells): inhibited proliferation; pIC50 (OPM-2 cells; Homo sapiens): 7.52; inhibition of proliferation of OPM-2 cells (OPM-2 cells): inhibited proliferation; pIC50 (HCC2429 cells): 7.07; mRNA expression of involucrin ([4]; HCC2429, RT-PCR, 72 hours, 50 nM, 200 nM and 500 nM, dose dependent): increased; MYC protein level [4, 5]: down-regulated; SOX2 protein level [4, 5]: down-regulated
Cc1sc2c(c1C)C(c1ccc(Cl)cc1)=N[C@@H](CC(=O)OC(C)(C)C)c1nnc(C)n1-2 [JQ1(−)] |  |  | pIC50 (MM1.S cells): < 6.00; pIC50 (OPM-2 cells): < 6.00

Continued, in another order:

pIC50 (BRD4 BD1) | pIC50 [1] | SMILES | other results
6.71 | 5.21 | CC[C@H](COC)n1c(=O)c(NCCC(=O)O)nc2ccc(-c3c(C)noc3C)nc21 [Example 47, N-{6-(3,5-dimethyl-1,2-oxazol-4-yl)-4-[(2R)-1-methoxybutan-2-yl]-3-oxo-3,4-dihydropyrido[2,3-b]pyrazin-2-yl}-beta-alanine] | pIC50 (MM1.S cells; Homo sapiens): 7.41; inhibition of proliferation of MM1.S cells (MM1.S cells): inhibited proliferation; pIC50 (OPM-2 cells; Homo sapiens): 6.80; inhibition of proliferation of OPM-2 cells (OPM-2 cells): inhibited proliferation; Max % Inh (LnCaP cells, AR(+)): 62%; pIC50 (LnCaP cells, AR(+); Homo sapiens): < 5.30; pIC50 [2]: < 5.30; Max % Inh [2]: 80%; pIC50 (C4-2AR-WT cells, AR(+)): < 5.30; Max % Inh (C4-2AR-WT cells, AR(+)): 82%; pIC50 [3]: < 5.30; Max % Inh [3]: 81%; Max % Inh (DU-145 cells, AR(−)): 43%; pIC50 (DU-145 cells, AR(−); Homo sapiens): < 5.30
7.20 | 5.96 | CCC[C@@H](c1ccccc1)n1c(=O)c(NCCC(=O)O)nc2ccc(-c3c(C)noc3C)nc21 [Example 52, N-{6-(3,5-dimethyl-1,2-oxazol-4-yl)-3-oxo-4-[(1S)-1-phenylbutyl]-3,4-dihydropyrido[2,3-b]pyrazin-2-yl}-beta-alanine] | 
6.90 | 5.03 | Cc1noc(C)c1-c1ccc2nc(NCCC(=O)O)c(=O)n([C@H](c3ccccc3)C(C)C)c2n1 [Example 53, N-{6-(3,5-dimethyl-1,2-oxazol-4-yl)-4-[(1S)-2-methyl-1-phenylpropyl]-3-oxo-3,4-dihydropyrido[2,3-b]pyrazin-2-yl}-beta-alanine] | 
7.00 | 5.58 | Cc1noc(C)c1-c1ccc2nc(NCCC(=O)O)c(=O)n([C@H](c3ccccn3)C(C)C)c2n1 [Example 54, N-{6-(3,5-dimethyl-1,2-oxazol-4-yl)-4-[(1S)-2-methyl-1-(pyridin-2-yl)propyl]-3-oxo-3,4-dihydropyrido[2,3-b]pyrazin-2-yl}-beta-alanine] | 
6.88 | 4.94 | Cc1noc(C)c1-c1ccc2nc(NCCC(=O)O)c(=O)n([C@@H](C)C3CCCCC3)c2n1 [Example 55, N-{4-[(1S)-1-cyclohexylethyl]-6-(3,5-dimethyl-1,2-oxazol-4-yl)-3-oxo-3,4-dihydropyrido[2,3-b]pyrazin-2-yl}-beta-alanine] | 
6.80 | 6.04 | CNC(=O)CNc1nc2ccc(-c3c(C)noc3C)nc2n([C@@H](C)c2ccccc2OC)c1=O [Example 57, N^2-{6-(3,5-dimethyl-1,2-oxazol-4-yl)-4-[(1S)-1-(2-methoxyphenyl)ethyl]-3-oxo-3,4-dihydropyrido[2,3-b]pyrazin-2-yl}-N-methylglycinamide] | 
